Source: ChEMBL document CHEMBL1201862, “PubChem BioAssay data set” (2004)
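Method: 48-hour compound exposure of cells in 96-well plates, five concentrations, linear interpolation of endpoints. Here, GI50 denotes the concentration required for 50% inhibition of growth.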 Activity calls are given as the source filed them. Cut-off read from the data, not from the text of the source: active = GI50 up to about 1.1 µM and inactive = higher.

Tests used:
Assay in all cases: NCI tumour cell line growth inhibition, 48 h
KM-20L2 = tested on: KM-20L2
DMS-273 = tested on: DMS-273
LXFL 529 = tested on: LXFL 529
SNB-78 = tested on: SNB-78
DMS-114 = tested on: DMS-114
M19-MEL = tested on: M19-MEL
DLD-1 = tested on: DLD-1
RXF 631 = tested on: RXF 631
HOP-18 = tested on: HOP-18

Row | SMILES | GI50 (KM-20L2) | GI50 (DMS-273) | GI50 (LXFL 529) | GI50 (SNB-78) | GI50 (DMS-114) | GI50 (M19-MEL) | GI50 (DLD-1) | GI50 (RXF 631) | GI50 (HOP-18)
1 | c1coc(CNc2[nH]cnc3nncc2-3)c1 | > 100 µM (inactive) | > 100 µM (inactive) | > 100 µM (inactive) | > 100 µM (inactive) | 44.5 µM (inactive) | > 100 µM (inactive) | > 100 µM (inactive) | > 100 µM (inactive) | –
2 | CC(=O)Nc1ccc(-c2nnc(SCC(=O)Nc3ccc(Cl)cc3Cl)o2)cc1 | 42.7 µM (inactive) | 39.5 µM (inactive) | 19.3 µM (inactive) | > 100 µM (inactive) | 15.7 µM (inactive) | 51.9 µM (inactive) | 35.1 µM (inactive) | – | 55.3 µM (inactive)
3 | COC(OC)c1cc2c(cc1C(=O)[C@@]13CCC[C@@H]1NC(=O)O3)OCO2 | – | > 100 µM (inactive) | – | > 100 µM (inactive) | > 100 µM (inactive) | > 100 µM (inactive) | 79.6 µM (inactive) | – | –
4 | Cn1nc2ccccc2cc1=O | > 100 µM (inactive) | > 100 µM (inactive) | – | > 100 µM (inactive) | > 100 µM (inactive) | > 100 µM (inactive) | > 100 µM (inactive) | > 100 µM (inactive) | > 100 µM (inactive)
5 | O=C(O)CC[C@H](NC(=O)c1ccc(-n2nc3ccc(=O)cc-3[nH]c2=O)cc1)C(=O)O | > 100 µM (inactive) | > 100 µM (inactive) | > 100 µM (inactive) | > 100 µM (inactive) | > 100 µM (inactive) | > 100 µM (inactive) | > 100 µM (inactive) | > 100 µM (inactive) | > 100 µM (inactive)
6 | CCOc1ccc(NC(=O)CC2Sc3ccccc3NC2=O)cc1 (stereo not drawn) | > 100 µM (inactive) | 33.4 µM (inactive) | > 100 µM (inactive) | 57.1 µM (inactive) | > 100 µM (inactive) | > 100 µM (inactive) | 88.5 µM (inactive) | – | 20.5 µM (inactive)
7 | COC(=O)N/N=C(\C)CC(=O)Nc1ccc(Cl)cc1 | > 100 µM (inactive) | – | > 100 µM (inactive) | > 100 µM (inactive) | > 100 µM (inactive) | > 100 µM (inactive) | > 100 µM (inactive) | > 100 µM (inactive) | –
8 | Cc1nc(C(N)=S)sc1C(=O)/C=C/c1cccc(O)c1 | > 100 µM (inactive) | > 100 µM (inactive) | – | > 100 µM (inactive) | 68.1 µM (inactive) | > 100 µM (inactive) | > 100 µM (inactive) | > 100 µM (inactive) | > 100 µM (inactive)
9 | Cc1cc2c(c3c1c1ccccc1n3C)C(=O)C=CC2=O | – | 22.5 µM (inactive) | 5.6 µM (inactive) | > 54.1 µM (inactive) | – | – | 6.32 µM (inactive) | – | –
10 | CC(C)=CC(=O)c1c(C(=O)O)nc2ccccc2[n+]1[O-] | > 100 µM (inactive) | > 100 µM (inactive) | > 100 µM (inactive) | > 100 µM (inactive) | > 100 µM (inactive) | > 100 µM (inactive) | > 100 µM (inactive) | > 100 µM (inactive) | –
11 | CC1OC(n2cc(F)c(=O)[nH]c2=O)CCC1=O (stereo not drawn) | 96.6 µM (inactive) | 62.5 µM (inactive) | > 100 µM (inactive) | > 100 µM (inactive) | > 100 µM (inactive) | > 100 µM (inactive) | 52.5 µM (inactive) | 39.9 µM (inactive) | 65.2 µM (inactive)
12 | N#CC(NNC(=O)Cc1ccccc1)c1c(O)ccc2ccccc12 (stereo not drawn) | 15.8 µM (inactive) | 3.68 µM (inactive) | – | 13.6 µM (inactive) | 2.08 µM (inactive) | 2.71 µM (inactive) | 3.96 µM (inactive) | – | 4.36 µM (inactive)
13 | CN1S(=O)(=O)N(C)P12(N=P(CP(=NP13(N(C)S(=O)(=O)N1C)N(C)S(=O)(=O)N3C)(c1ccccc1)c1ccccc1)(c1ccccc1)c1ccccc1)N(C)S(=O)(=O)N2C | > 100 µM (inactive) | > 100 µM (inactive) | > 100 µM (inactive) | > 100 µM (inactive) | > 100 µM (inactive) | > 100 µM (inactive) | > 100 µM (inactive) | > 100 µM (inactive) | > 100 µM (inactive)
14 | COc1cccc(OC)c1/C=N\N1C(=O)c2ccccc2C1=O | 19.2 µM (inactive) | 21.1 µM (inactive) | 40.7 µM (inactive) | 59.4 µM (inactive) | 31.6 µM (inactive) | 48.4 µM (inactive) | 49 µM (inactive) | 29.4 µM (inactive) | > 100 µM (inactive)
15 | OC12CC/C(=N/OCc3ccccc3)CC1c1ccccc12 (stereo not drawn) | > 100 µM (inactive) | > 100 µM (inactive) | > 100 µM (inactive) | > 100 µM (inactive) | > 100 µM (inactive) | > 100 µM (inactive) | > 100 µM (inactive) | – | > 100 µM (inactive)
16 | CCn1c2ccccc2c(=O)c2c(OC)ccc(OC)c21 | 92.5 µM (inactive) | 30.8 µM (inactive) | 34 µM (inactive) | – | – | 74 µM (inactive) | – | 49.1 µM (inactive) | –
17 | COC(=O)/C(=C/CC(N=C(c1ccccc1)c1ccccc1)C(=O)OC)N=C(c1ccccc1)c1ccccc1 (stereo not drawn) | – | > 100 µM (inactive) | > 100 µM (inactive) | – | 15.1 µM (inactive) | > 100 µM (inactive) | > 100 µM (inactive) | – | –
18 | CC#CC1C(OC(=O)c2ccccc2)CCCC1(CI)N=[N+]=[N-] (stereo not drawn) | 60.7 µM (inactive) | 38.7 µM (inactive) | 36.4 µM (inactive) | > 100 µM (inactive) | 25.1 µM (inactive) | 48.5 µM (inactive) | 52.1 µM (inactive) | – | > 100 µM (inactive)
19 | N#CC1=C(c2ccccc2)NN(Cc2ccccc2)C(c2ccc(Cl)cc2)CC1=O (stereo not drawn) | 20.8 µM (inactive) | 21.4 µM (inactive) | 20.4 µM (inactive) | 99.3 µM (inactive) | 32.3 µM (inactive) | – | 15.7 µM (inactive) | 28.1 µM (inactive) | 17 µM (inactive)
20 | OC1(C23CC4CC(CC(C4)C2)C3)CSCC1(O)C12CC3CC(CC(C3)C1)C2 (stereo not drawn) | – | > 100 µM (inactive) | > 100 µM (inactive) | > 100 µM (inactive) | > 100 µM (inactive) | 64.6 µM (inactive) | > 100 µM (inactive) | > 100 µM (inactive) | –
21 | CC1(C)COC2(OC1)C1=NS(=O)(=O)CC13CCC2C3(C)C (stereo not drawn) | > 100 µM (inactive) | > 100 µM (inactive) | > 100 µM (inactive) | > 100 µM (inactive) | > 100 µM (inactive) | > 100 µM (inactive) | > 100 µM (inactive) | > 100 µM (inactive) | > 100 µM (inactive)
22 | CN(C)C(=Nc1nc(N(C)C)s[s+]1)N(C)C | > 100 µM (inactive) | > 100 µM (inactive) | > 100 µM (inactive) | – | > 100 µM (inactive) | > 100 µM (inactive) | > 100 µM (inactive) | > 100 µM (inactive) | > 100 µM (inactive)
23 | CCCCCCCCCCCCNC1(C)CNCCCNCCNCCCNC1 | 1.66 µM (inactive) | 0.475 µM (active) | 1.67 µM (inactive) | 1.82 µM (inactive) | – | 1.72 µM (inactive) | 1.67 µM (inactive) | 1.93 µM (inactive) | 1.68 µM (inactive)
